Results as given in patent publication US6335347B1, “Ethyl 4-(8-chloro-5,6-dihydro-11 H-benzo[5,6]cyclohepta[1,2-b]pyridin-11-ylidene)-1-piperidene carboxylate polymorph” (Schering Corporation, priority 1997, dated 2002).

Test system: monkey model
Test: Antihistaminic activity in a monkey model

CCOC(=O)N1CCC(=C2c3ccc(Cl)cc3CCc3cccnc32)CC1 [polymorph form 2 loratadine, ethyl 4-(8-chloro-5,6,-dihydro-11H-benzo[5,6]cyclohepta[1,2-b]pyridin-11-ylidene)-1-piperidene carboxylate]
Antihistaminic activity: demonstrated
